Key:
Assay in all cases: cells
[1] = tested on: MDA-MB-231 cells; conditions: Homo sapiens, MDA-MB-231, 72 h; for CC50: read-out: LC50; for IC (TGI): read-out: TGI
Text: (§1) The aim of this assay is to evaluate the in vitro cytostatic (ability to delay or arrest tumor cell growth) or cytotoxic (ability to kill tumor cells) activity of the samples being tested.
(§2) A colorimetric assay, using sulforhodamine B (SRB) reaction has been adapted to provide a quantitative measurement of cell growth and viability (following the technique described by Skehan et al. J. Natl. Cancer Inst. 1990, 82, 1107-1112). Another colorimetric assay based on 3-(4,5-Dimethylthiazol-2-yl)-2,5-diphenyltetrazolium bromide (MTT) reduction to a purple formazan has been also used to assess the antiproliferative activity (following the technique described by Mosmann et al. J. Immunol. Meth. 1983, 65, 55-63).
(§3) These forms of assays employ 96-well cell culture microplates following the standards of the American National Standards Institute and the Society for Laboratory Automation and Screening (ANSI SLAS 1-2004 (R2012) Oct. 12, 2011. All the cell lines used in this study were obtained from the American Type Culture Collection (ATCC) and derive from different types of human cancer.
(§4) A549, HT29, MDA-MB-231 and PSN1 cells were maintained in Dulbecco's Modified Eagle Medium (DMEM) while PC-3 and 22Rv1 cells were maintained in Roswell Park Memorial Institute Medium (RPMI). All cell lines were supplemented with 10% Fetal Bovine Serum (FBS), 2 mM L-glutamine, 100 U/mL penicillin, and 100 […] at 37° C., 5% CO2 and 98% humidity. For the experiments, cells were harvested from subconfluent cultures using trypsinization and resuspended in fresh medium before counting and plating.
(§5) A549, HT29, MDA-MB-231 and PSN1 cells were seeded in 96 well microtiter plates, at 5000 cells per well in aliquots of 150 μL, and allowed to attach to the plate surface for 18 hours (overnight) in drug free medium. After that, one control (untreated) plate of each cell line was fixed (as described below) and used for time zero reference value. Culture plates were then treated with test compounds (50 μL aliquots of 4× stock solutions in complete culture medium plus 4% DMSO) using ten 2/5 serial dilutions (concentrations ranging from 10 to 0.003 μg/mL) and triplicate cultures (1% final concentration in DMSO). After 72 hours treatment, the antitumor effect was measured by using the SRB methodology: Briefly, cells were washed twice with PBS, fixed for 15 min in 1% glutaraldehyde solution at room temperature, rinsed twice in PBS, and stained in 0.4% SRB solution for 30 min at room temperature. Cells were then rinsed several times with 1% acetic acid solution and air-dried at room temperature.
(§6) Effects on cell growth and survival were estimated by applying the NCI algorithm (Boyd M R and Paull K D. Drug Dev. Res. 1995, 34, 91-104). The values obtained in triplicate cultures were fitted by nonlinear regression to a four-parameters logistic curve by nonlinear regression analysis.

[2] = tested on: HT29 cells; conditions: Homo sapiens, HT-29, 72 h; for CC50: read-out: LC50; for IC (TGI): read-out: TGI
Text: as §1, §2, §3, §4, §5, §6

[3] = tested on: A549 cells; conditions: Homo sapiens, A549, 72 h; for CC50: read-out: LC50; for IC (TGI): read-out: TGI
Text: as §1, §2, §3, §4, §5, §6

[4] = tested on: PSN1 cells; conditions: Homo sapiens, PSN1, 72 h; for CC50: read-out: LC50; for IC (TGI): read-out: TGI
Text: as §1, §2, §3, §4, §5, §6

Structure (SMILES)	GI50 [1]	CC50 [1]	IC (TGI) [1]	GI50 [2]	CC50 [2]	IC (TGI) [2]	GI50 [3]	CC50 [3]	IC (TGI) [3]	GI50 [4]	CC50 [4]	IC (TGI) [4]	GI50 ([4]; PSN1, 72 hours treatment, SRB)
COc1ccc2[nH]c3c(c2c1)C[C@@H](C(=O)O)N[C@]31CS[C@@H]2c3c(OC(C)=O)c(C)c4c(c3[C@H](COC1=O)N1[C@@H]2[C@H]2c3c(cc(C)c(OC)c3O)C[C@@H]([C@@H]1O)N2C)OCO4 [Compound 29-S]	0.217 µM	0.688 µM	0.374 µM	0.362 µM	0.832 µM	0.531 µM	0.615 µM	> 1.21 µM	> 1.21 µM	0.386 µM	0.688 µM	0.507 µM	–
C=CCOC(=O)NC[C@@H]1Cc2c([nH]c3ccc(OC)cc23)[C@@]2(CS[C@@H]3c4c(OC(C)=O)c(C)c5c(c4[C@H](COC2=O)N2[C@@H]3[C@H]3c4c(cc(C)c(OC)c4O)C[C@@H]([C@@H]2C#N)N3C)OCO5)N1 [Compound 25-S]	0.00584 µM	0.0154 µM	0.00904 µM	0.00717 µM	> 0.11 µM	0.00772 µM	0.00717 µM	> 0.11 µM	0.00761 µM	–	0.0143 µM	0.00926 µM	0.00684 µM
COc1c(C)cc2c(c1O)[C@@H]1[C@@H]3[C@@H]4SC[C@]5(NCCc6c5oc5ccccc65)C(=O)OC[C@@H](c5c6c(c(C)c(OC(C)=O)c54)OCO6)N3[C@@H](C#N)[C@H](C2)N1C [Compound 31]	0.00889 µM	0.0353 µM	0.017 µM	0.0105 µM	> 0.131 µM	0.0157 µM	0.0196 µM	0.0235 µM	0.0209 µM	0.0068 µM	0.0431 µM	0.0157 µM	–
COc1c(C)cc2c(c1O)[C@@H]1[C@@H]3[C@@H]4SC[C@]5(N[C@H](CN)Cc6c5oc5ccccc65)C(=O)OC[C@@H](c5c6c(c(C)c(OC(C)=O)c54)OCO6)N3[C@@H](O)[C@H](C2)N1C [Compound 47-S]	–	0.0166 µM	–	–	> 0.127 µM	–	–	> 0.127 µM	–	–	0.0127 µM	–	–
C=CCOC(=O)NC[C@H]1Cc2c([nH]c3ccc(OC)cc23)[C@@]2(CS[C@@H]3c4c(OC(C)=O)c(C)c5c(c4[C@H](COC2=O)N2[C@@H]3[C@H]3c4c(cc(C)c(OC)c4O)C[C@@H]([C@@H]2C#N)N3C)OCO5)N1 [Compound 25-R]	–	0.00838 µM	0.00254 µM	0.00154 µM	> 0.11 µM	0.00276 µM	0.00132 µM	0.00992 µM	0.00243 µM	–	0.00673 µM	0.00232 µM	–
COc1ccc2oc3c(c2c1)CCN[C@]31CS[C@@H]2c3c(OC(C)=O)c(C)c4c(c3[C@H](COC1=O)N1[C@@H]2[C@H]2c3c(cc(C)c(OC)c3O)C[C@@H]([C@@H]1C#N)N2C)OCO4 [Compound 34]	0.0453 µM	0.112 µM	0.0767 µM	0.0541 µM	0.125 µM	0.0855 µM	0.0591 µM	> 0.126 µM	0.0805 µM	0.0541 µM	> 0.126 µM	0.0591 µM	–
COc1ccc2[nH]c3c(c2c1)C[C@@H](C(=O)O)N[C@]31CS[C@@H]2c3c(OC(C)=O)c(C)c4c(c3[C@H](COC1=O)N1[C@@H]2[C@H]2c3c(cc(C)c(OC)c3O)C[C@@H]([C@@H]1C#N)N2C)OCO4 [Compound 28-S]	0.167 µM	0.394 µM	0.251 µM	0.251 µM	0.633 µM	0.346 µM	0.489 µM	> 1.19 µM	> 1.19 µM	0.251 µM	0.692 µM	0.394 µM	–
COc1c(C)cc2c(c1O)[C@@H]1[C@@H]3[C@@H]4SC[C@]5(N[C@@H](CO)Cc6c5oc5ccccc65)C(=O)OC[C@@H](c5c6c(c(C)c(OC(C)=O)c54)OCO6)N3[C@@H](C#N)[C@H](C2)N1C [Compound 38-R]	0.000453 µM	0.00201 µM	0.000843 µM	0.000541 µM	> 0.126 µM	0.000591 µM	0.000654 µM	> 0.126 µM	0.00104 µM	–	0.00176 µM	0.000994 µM	0.000654 µM
COc1c(C)cc2c(c1O)[C@@H]1[C@@H]3[C@@H]4SC[C@]5(N[C@@H](C)Cc6c5[nH]c5ccccc65)C(=O)OC[C@@H](c5c6c(c(C)c(OC(C)=O)c54)OCO6)N3[C@@H](C#N)[C@H](C2)N1C [B]	0.009 µM	0.0347 µM	0.0167 µM	0.00848 µM	> 0.129 µM	0.00913 µM	0.0206 µM	> 0.129 µM	0.0219 µM	0.0193 µM	0.0231 µM	0.0206 µM	–
COc1c(C)cc2c(c1O)[C@@H]1[C@@H]3[C@@H]4SC[C@]5(N[C@H](C(=O)O)Cc6c5[nH]c5ccccc65)C(=O)OC[C@@H](c5c6c(c(C)c(OC(C)=O)c54)OCO6)N3[C@@H](C#N)[C@H](C2)N1C [Compound 14-S]	0.0545 µM	> 0.124 µM	0.113 µM	0.121 µM	> 0.124 µM	> 0.124 µM	> 0.124 µM	> 0.124 µM	> 0.124 µM	> 0.124 µM	> 0.124 µM	> 0.124 µM	–
COc1c(C)cc2c(c1O)[C@@H]1[C@@H]3[C@@H]4SC[C@]5(N[C@H](CO)Cc6c5oc5ccccc65)C(=O)OC[C@@H](c5c6c(c(C)c(OC(C)=O)c54)OCO6)N3[C@@H](C#N)[C@H](C2)N1C [Compound 38-S]	0.00252 µM	0.0078 µM	0.00428 µM	0.00453 µM	> 0.126 µM	0.00705 µM	0.00805 µM	0.00944 µM	0.00855 µM	–	0.0151 µM	0.00818 µM	0.00503 µM
COc1ccc2[nH]c3c(c2c1)C[C@H](CN)N[C@]31CS[C@@H]2c3c(OC(C)=O)c(C)c4c(c3[C@H](COC1=O)N1[C@@H]2[C@H]2c3c(cc(C)c(OC)c3O)C[C@@H]([C@@H]1O)N2C)OCO4 [Compound 27-R]	0.000307 µM	0.00086 µM	0.000541 µM	0.000504 µM	> 0.123 µM	0.000553 µM	0.00209 µM	0.0101 µM	0.00393 µM	–	0.00246 µM	0.00117 µM	0.000639 µM
COc1ccc2[nH]c3c(c2c1)C[C@@H](CN)N[C@]31CS[C@@H]2c3c(OC(C)=O)c(C)c4c(c3[C@H](COC1=O)N1[C@@H]2[C@H]2c3c(cc(C)c(OC)c3O)C[C@@H]([C@@H]1C#N)N2C)OCO4 [Compound 26-S]	0.00134 µM	0.00389 µM	0.00194 µM	0.00279 µM	> 0.122 µM	0.00316 µM	0.0112 µM	> 0.122 µM	0.0219 µM	–	0.00352 µM	0.00328 µM	0.00304 µM
COc1ccc2[nH]c3c(c2c1)C[C@@H](CO)N[C@]31CS[C@@H]2c3c(OC(C)=O)c(C)c4c(c3[C@H](COC1=O)N1[C@@H]2[C@H]2c3c(cc(C)c(OC)c3O)C[C@@H]([C@@H]1C#N)N2C)OCO4 [Compound 18-S]	–	0.00158 µM	0.00134 µM	–	–	0.00134 µM	0.0017 µM	–	0.00303 µM	–	–	0.00134 µM	0.000959 µM
COc1ccc2[nH]c3c(c2c1)C[C@H](C(=O)O)N[C@]31CS[C@@H]2c3c(OC(C)=O)c(C)c4c(c3[C@H](COC1=O)N1[C@@H]2[C@H]2c3c(cc(C)c(OC)c3O)C[C@@H]([C@@H]1C#N)N2C)OCO4 [Compound 28-R]	0.0191 µM	0.0919 µM	0.0322 µM	0.031 µM	> 1.19 µM	0.0334 µM	0.167 µM	> 1.19 µM	0.358 µM	0.0215 µM	0.0668 µM	0.0358 µM	–

Source: patent US10538535B2, “Antitumoral compounds” (priority 2017, dated 2020)
